Results reported in US12649733B2, “3,6-diamino-pyridazin-3-yl derivatives, pharmaceutical compositions containing them and their uses as pro-apoptotic agents” (LES LABORATOIRES SERVIER, priority 2019, dated 2026).

Tests used:
MOLT-4 cells = experiment: MOLT-4 cell viability, MTT assay; assay type: cell-based; conditions: Homo sapiens, MOLT-4, 48 h, 48 h exposure
Outline: (§1)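 Viability read by MTT reduction (OD 540 nm after overnight SDS/HCl lysis) after 48 h compound treatment of cells in RPMI 1640/10% FBS. Triplicates at nine concentrations, 3.16-fold apart; four-parameter curve fitting yields IC50.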

Bcl-xL protein = target: T1, Bcl-xL protein (Homo sapiens, UniProt Q07817, N197C); experiment: Fluorescence quenching assay (PUMA peptide displacement); assay type: binding; conditions: 1 nM protein, 400 nM peptide, 2 hours at 23° C.; KI determined from IC50
T1 construct: (2-197)[N197C]; His-His (two His8 stretches joined by a Gly/Ala/Ser/Thr linker)
T1 sequence (Q07817 2-197 N197C): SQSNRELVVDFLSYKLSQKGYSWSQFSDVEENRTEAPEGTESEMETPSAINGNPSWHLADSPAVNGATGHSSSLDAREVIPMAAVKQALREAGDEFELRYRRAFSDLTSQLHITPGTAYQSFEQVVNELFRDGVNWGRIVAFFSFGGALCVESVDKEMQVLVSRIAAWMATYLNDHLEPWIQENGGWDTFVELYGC
Outline: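 Compounds were tested as an 11-point series in pH 7.4 HEPES/NaCl/Tween buffer with 5% DMSO, 2 h at 23 °C. Cy5-tagged Bcl-xL(2-197, N197C) at 1 nM and quencher-tagged PUMA peptide at 400 nM were used. Competitive binders restore fluorescence (620/680 nm), and IC50 values were converted to KI.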

H146 cells = experiment: H146 cell viability, MTT assay; assay type: cell-based; conditions: Homo sapiens, NCI-H146, 48 h, 48 h exposure
Outline: as §1

SMILES	IC50 (MOLT-4 cells)	Ki (Bcl-xL protein)	IC50 (H146 cells)
Cc1cc(N(CCCC(O)C[N+]2(C)CCCCC2)c2nc(C(=O)[O-])c(CCCOc3ccc(C#CCN(C)C)cc3F)s2)nnc1Nc1nc2ccccc2s1 (stereo not drawn) [Example 220, 2-[[6-(1,3-Benzothiazol-2-ylamino)-5-methyl-pyridazin-3-yl]-[4-hydroxy-5-(1-methylpiperidin-1-ium-1-yl)pentyl]amino]-5-[3-[4-[3-(dimethylamino)prop-1-ynyl]-2-fluoro-phenoxy]propyl]thiazole-4-carboxylate]	984 nM	0.0035 nM	221 nM
Cc1cc(N(CCCC(O)C[N+]2(C)CCN(C)CC2)c2nc(C(=O)[O-])c(CCCOc3ccc(C#CCN(C)C)cc3F)s2)nnc1Nc1nc2ccccc2s1 (stereo not drawn) [Example 221, 2-[[6-(1,3-Benzothiazol-2-ylamino)-5-methyl-pyridazin-3-yl]-[5-(1,4-dimethylpiperazin-1-ium-1-yl)-4-hydroxy-pentyl]amino]-5-[3-[4-[3-(dimethylamino)prop-1-ynyl]-2-fluoro-phenoxy]propyl]thiazole-4-carboxylate]	29.5 nM	0.0017 nM	94.4 nM
Cc1cc(N(C)c2nc(C(=O)[O-])c(CCCOc3ccc(C#CCNCC[N+](C)(C)C)cc3F)s2)nnc1Nc1nc2ccccc2s1 [Example 222, 2-[3-[4-[3-[2-[[6-(1,3-Benzothiazol-2-ylamino)-5-methyl-pyridazin-3-yl]-methyl-amino]-4-carboxy-thiazol-5-yl]propoxy]-3-fluoro-phenyl]prop-2-ynylamino]ethyl-trimethyl-ammonium]	61 nM	0.0014 nM	32.4 nM
Cc1cc(N(C)c2nc(C(=O)O)c(CCCOc3ccc(C#CCNCCN(C)C)cc3F)s2)nnc1Nc1nc2ccccc2s1 [Example 223, 2-[[6-(1,3-Benzothiazol-2-ylamino)-5-methyl-pyridazin-3-yl]-methyl-amino]-5-[3-[4-[3-[2-(dimethylamino)ethylamino]prop-1-ynyl]-2-fluoro-phenoxy]propyl]thiazole-4-carboxylic acid]	3.13 nM	0.0018 nM	7.46 nM
CNCC#Cc1ccc(OCCCc2sc(N(CCCCCC[N+](C)(C)C)c3cc(C)c(Nc4nc5ccccc5s4)nn3)nc2C(=O)[O-])c(F)c1 [Example 224, 2-[[6-(1,3-Benzothiazol-2-ylamino)-5-methyl-pyridazin-3-yl]-[6-(trimethylammonio)hexyl]amino]-5-[3-[2-fluoro-4-[3-(methylamino)prop-1-ynyl]phenoxy]propyl]thiazole-4-carboxylate]	2180 nM	0.002 nM	1160 nM
Cc1cc(N(CCCCC[N+](C)(C)CCCO)c2nc(C(=O)[O-])c(CCCOc3ccc(C#CCN(C)C)cc3F)s2)nnc1Nc1nc2ccccc2s1 [Example 225, 2-[[6-(1,3-Benzothiazol-2-ylamino)-5-methyl-pyridazin-3-yl]-[5-[3-hydroxypropyl(dimethyl)ammonio]pentyl]amino]-5-[3-[4-[3-(dimethylamino)prop-1-ynyl]-2-fluoro-phenoxy]propyl]thiazole-4-carboxylate]	1080 nM	0.0035 nM	351 nM
CNCC#Cc1ccc(OCCCc2sc(N(CCCCC[N+](C)(C)CCO)c3cc(C)c(Nc4nc5ccccc5s4)nn3)nc2C(=O)[O-])c(F)c1 [Example 229, 2-[[6-(1,3-Benzothiazol-2-ylamino)-5-methyl-pyridazin-3-yl]-[5-[2-hydroxyethyl(dimethyl)ammonio]pentyl]amino]-5-[3-[2-fluoro-4-[3-(methylamino)prop-1-ynyl]phenoxy]propyl]thiazole-4-carboxylate]	1640 nM	0.0014 nM	437 nM
CNCC#Cc1ccc(OCCCc2sc(N(CCCCC[N+](C)(C)CCCO)c3cc(C)c(Nc4nc5ccccc5s4)nn3)nc2C(=O)[O-])c(F)c1 [Example 230, 2-[[6-(1,3-Benzothiazol-2-ylamino)-5-methyl-pyridazin-3-yl]-[5-[3-hydroxypropyl(dimethyl)ammonio]pentyl]amino]-5-[3-[2-fluoro-4-[3-(methylamino)prop-1-ynyl]phenoxy]propyl]thiazole-4-carboxylate]	2180 nM	0.0014 nM	1380 nM
CNCC#Cc1ccc(OCCCc2sc(N(CCCCC[N+](C)(C)CC(=O)O)c3cc(C)c(Nc4nc5ccccc5s4)nn3)nc2C(=O)[O-])c(F)c1 [Example 231, 2-[[6-(1,3-Benzothiazol-2-ylamino)-5-methyl-pyridazin-3-yl]-[5-[carboxymethyl(dimethyl)ammonio]pentyl]amino]-5-[3-[2-fluoro-4-[3-(methylamino)prop-1-ynyl]phenoxy]propyl]thiazole-4-carboxylate]	1190 nM	0.0013 nM	1610 nM
Cc1cc(N(C)c2nc(C(=O)O)c(CCCOc3ccc(C#CCN(C)C)cc3)s2)nnc1Nc1nc2ccccc2s1 [Example 233, 2-[[6-(1,3-Benzothiazol-2-ylamino)-5-methyl-pyridazin-3-yl]-methyl-amino]-5-[3-[4-[3-(dimethylamino)prop-1-ynyl]phenoxy]propyl]thiazole-4-carboxylic acid]	0.879 nM	0.0043 nM	2.55 nM
Cc1cc(N(C)c2nc(C(=O)O)c(CCCOc3ccc(C45CC(CN(C)C)(C4)C5)cc3)s2)nnc1Nc1nc2ccccc2s1 [Example 234, 2-[[6-(1,3-Benzothiazol-2-ylamino)-5-methyl-pyridazin-3-yl]-methyl-amino]-5-[3-[4-[1-[(dimethylamino)methyl]-3-bicyclo[1.1.1]pentanyl]phenoxy]propyl]thiazole-4-carboxylic acid]	3.8 nM	0.0016 nM	15 nM
CNCC#Cc1ccc(OCCCc2sc(N(CCC[N+](C)(C)CCCS(=O)(=O)[O-])c3cc(C)c(Nc4nc5ccccc5s4)nn3)nc2C(=O)O)c(F)c1 [Example 235, 3-[3-[[6-(1,3-Benzothiazol-2-ylamino)-5-methyl-pyridazin-3-yl]-[4-carboxy-5-[3-[2-fluoro-4-[3-(methylamino)prop-1-ynyl]phenoxy]propyl]thiazol-2-yl]amino]propyl-dimethyl-ammonio]propane-1-sulfonate]	413 nM	0.0011 nM	413 nM
